From patent US20220267854A1, “EGFR AND ROS1 KINASE IN CANCER” (CELL SIGNALING TECHNOLOGY, INC., priority 2012, published 2022) come the findings set out here.

Experiment [1] deals with STAT3, AKT, ERK, Shp2 in BaF3 cells transduced with the FLT-3ITD retrovirus. The experiment is classed as cell-based. The note with it: FLT-3ITD BaF3. From the text: (§1) All antibodies were from Cell Signaling Technology, Inc. (Danvers, Mass.)
(§2) Since ROS1, ALK, LTK, InsR, and IGFIR belong to the same family of tyrosine kinases, they may share similar structure in the kinase domain.

Experiment [2] relates to STAT3, AKT, ERK, Shp2 in FIG-ROS1(L) expressing BaF3 cells. The experiment can be described thus: Western blotting, downstream signaling molecules in FIG-ROS1(L) expressing BaF3 cells. The experiment is classed as cell-based.
Excerpt: as §1, §2
For orientation: A western blot detects proteins with antibodies after separation by electrophoresis.

The subject of experiment [3] is STAT3, AKT, ERK, Shp2 in FIG-ROS1(S) expressing BaF3 cells. The experiment can be described thus: Western blotting, downstream signaling molecules in FIG-ROS1(S) expressing BaF3 cells. The experiment is classed as cell-based.
Excerpt: as §1, §2

Experiment [4] has as its target FIG-ROS1(L) (Homo sapiens, UniProt P08922). The experiment in a line: Western blotting, phosphorylation of FIG-ROS1(L) in BaF3 cells. The experiment is classed as cell-based.
Excerpt: as §1, §2

In experiment [5] the target is T1, FIG-ROS1(S) (Homo sapiens, UniProt P08922).
T1 construct: expressed in transfected cells; host or cells: BaF3 cells (retroviral transduction, selected for IL3-independent growth)
The experiment in a line: Western blotting, phosphorylation of FIG-ROS1(S) in BaF3 cells. The experiment is classed as cell-based.
Excerpt: as §1, §2

The subject of experiment [6] is Karpas 299 cells. The experiment can be described thus: Cleaved caspase-3 flow cytometry (apoptosis), Karpas 299. The experiment is classed as cell-based. Conditions: FIG. 7. From the text: (§3) The mechanism of death of the BaF3 and Karpas 299 cells was next assessed by measuring the percentage of cleaved-caspase 3 positive cells by flow cytometry assay using cleaved caspase-3 as a marker for apoptosis.
On the technique in general: A flow cytometer gives signals particle by particle.

The test system of experiment [7] is BaF3 cells expressing FIG-ROS1(L). The experiment can be described thus: MTS cell growth assay, BaF3 expressing FIG-ROS1(L). The experiment is classed as cell-based. As to the method: (§4) BaF3 and Karpas 299 cells were obtained from DSMZ (Deutsche Sammlung von Mikroorganismen und Zellkulturen GmbH, Germany). BaF3 cells, which need interleukin-3 to survive, were maintained at 37° C. in RPMI-1640 medium (Invitrogen) with 10% fetal bovine serum (FBS) (Sigma) and 1.0 ng/ml murine IL-3 (R&D Systems). Karpas 299 cells (a lymphoma cell line) were grown in RPMI-1640 with 10% FBS.
(§5) BaF3 cells were transduced with retrovirus encoding FIG-ROS1(S), FIG-ROS1(L), or FLT-31TD (the Internal tandem duplication mutation in FLT3 causes AML leukemia), and selected for IL3 independent growth. Karpas 299 cells, which express NPM-ALK, was used as a positive control. Retroviruses were generated as previously described (see PCT Publication No. WO 2010/093928, incorporated by reference).
(§6) A MTS assay was performed using the CellTiter 96 Aqueous One Solution Reagent (Promega, Catalog No G3582). […] After 72 hours, 20 μl of the CellTiter 96 Aqueous One Solution Reagent was added into each well of a 96 well assay plate (flat bottom), and then 100 μl of cells grown with or without treatment. Media-only wells were used as controls. The 96 well plate was incubated for 1-4 hours at 37° C., and then viable cells were counted by reading the absorbance at 490 nm using a 96 well plate reader.

For experiment [8], the system named is BaF3 cells transduced with FLT3/ITD. As to the method:
as §4, §5, §6

Experiment [9] relates to Karpas 299 cells (express NPM-ALK). Conditions: FIG. 6, 0-1000 nM, 72 hours. As to the method:
as §4, §5, §6

For experiment [10], the system named is BaF3 cells expressing FIG-ROS1(S). The experiment can be described thus: Cleaved caspase-3 flow cytometry (apoptosis), BaF3 FIG-ROS1(S). The experiment is classed as cell-based. The note with it: FIG. 7.
Excerpt: as §3

The test system is the same in experiment [11]. The experiment in a line: MTS cell growth assay, BaF3 expressing FIG-ROS1(S). The experiment is classed as cell-based. As to the method: as §4, §5, §6
(Formazan colour is commonly taken as a measure of viable cells.)

Experiment [12] has as its system BaF3 cells expressing myc-tagged neomycin (Neo-Myc). The experiment can be described thus: MTS cell growth assay, BaF3 expressing myc-tagged neomycin. The experiment is classed as cell-based. Conditions: FIGS. 9A/9B; 0-1.0 uM; negative control BaF3 neo-myc. The protocol: as §4, §6
Experiment [13] deals with BaF3 cells expressing FIG-ROS1(L). The experiment in a line: Cleaved caspase-3 flow cytometry (apoptosis), BaF3 FIG-ROS1(L). The experiment is classed as cell-based. The note with it: FIG. 7.
Excerpt: as §3

Where [14] appears, read: FIG. 10, 0, 0.1, 0.3, or 1.0 uM for three hours.
[15] abbreviates: FIG. 8, 0, 10, 50, or 100 nM for three hours.
[16] abbreviates: FIGS. 9A/9B, 0-1.0 uM, same concentration of each.

For `C[C@@H](Oc1cc(-c2cnn(C3CCNCC3)c2)cnc1N)c1c(Cl)ccc(F)c1Cl` [crizotinib], the entries for the “phosphorylation of STAT3 and ERK” value in [1] (setting [14]), in experiment [2] (setting [14]) and in [3] (setting [14]) were “not affected”, “inhibited” and “inhibited”, respectively. In experiment [4] (setting [14]), the “phosphorylation of FIG-ROS1(L)” value was “inhibited”. In addition, the “phosphorylation of FIG-ROS1(S)” value in experiment [5] (setting [14]) was “inhibited”.
For the compound `COc1cc(N2CCC(N3CCN(C)CC3)CC2)ccc1Nc1ncc(Cl)c(Nc2ccccc2S(=O)(=O)C(C)C)n1` [TAE-684], the “phosphorylation of STAT3, AKT, and ERK, and Shp2” value is “not affected” in experiment [1] (setting [15]), “inhibited” in [2] (setting [15]) and “inhibited” in [3] (setting [15]). Besides, the entries for the “mechanism of death, cleaved-caspase 3 positive cells” value in [6], in experiment [10] and in [13] were “did not die by apoptosis”, “die by apoptosis” and “die by apoptosis”, respectively. Also, the cellular growth response result is reported as “stopped growing” in experiment [7] (FIG. 6, 0-1000 nM, 72 hours); “not susceptible” in [8] (FIG. 6, 0-1000 nM, 72 hours, BaF3 FLT3/ITD); “stopped growing” in experiment [9]; “stopped growing” in experiment [11] (FIG. 6, 0-1000 nM, 72 hours). Further, the “cellular growth response, TAE-684 compared with crizotinib” value in [7] (setting [16]) and in experiment [11] (setting [16]) was “more sensitive to TAE-684 than to crizotinib” throughout. In addition, the “cellular growth response, compared with FIG-ROS1 BaF3 and Karpas 299 cells” value is given as “less sensitive” in experiment [8] (FIGS. 9A/9B, 0-1.0 uM, negative control BaF3 FLT3-ITD) and “less sensitive” in experiment [12]. The “phosphorylation of FIG-ROS1(L)” value in experiment [4] (setting [15]) is “inhibited”. Moreover, in experiment [5] (setting [15]), the “phosphorylation of FIG-ROS1(S)” value is recorded as “inhibited”.
